According to US12686690B2, “Macrocyclic urea orexin receptor agonists” (Merck Sharp & Dohme LLC, priority 2020, dated 2026):

Molecular target: T1, hOX2R (Homo sapiens, UniProt O43614)
T1 construct: expressed in transfected cells; host or cells: CHO cells (G418 selection)
T1 sequence (O43614 1-444): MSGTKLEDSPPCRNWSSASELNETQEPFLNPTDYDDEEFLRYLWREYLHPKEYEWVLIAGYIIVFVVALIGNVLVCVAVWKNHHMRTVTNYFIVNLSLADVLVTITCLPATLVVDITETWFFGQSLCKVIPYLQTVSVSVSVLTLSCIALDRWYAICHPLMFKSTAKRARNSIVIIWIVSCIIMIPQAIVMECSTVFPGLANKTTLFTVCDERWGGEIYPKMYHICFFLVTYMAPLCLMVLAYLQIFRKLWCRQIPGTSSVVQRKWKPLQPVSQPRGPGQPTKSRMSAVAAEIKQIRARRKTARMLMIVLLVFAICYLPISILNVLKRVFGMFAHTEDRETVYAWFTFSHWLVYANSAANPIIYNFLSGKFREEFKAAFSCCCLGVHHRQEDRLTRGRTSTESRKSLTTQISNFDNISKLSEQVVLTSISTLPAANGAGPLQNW
Test: hOX2R IPone assay (orexin receptor agonism)
Assay type: cell-based
Conditions: IPone readout; for hOX2R_Ipone max %act: maximal activation; for EC50: orexin receptor agonist, read-out: hOX2R_IPone EC50

| SMILES | hOX2R_Ipone max %act [%] | EC50 [nM] |
| --- | --- | --- |
| CCN1C(=O)NCCCNCCOc2nc(cn3ccnc23)-c2cccc(c2)[C@H]1C [Example 11] | 75.54 | 778 |
| CCN1C(=O)N[C@@H](CCS(C)(=O)=O)CCCCCOc2nc(cn3ncnc23)-c2cc(ncc2OC)[C@H]1C [Example 154, (3R,7R,E)-4-ethyl-25-methoxy-3-methyl-7-(2-(methylsulfonyl)ethyl)-13-oxa-4,6-diaza-1(6,8)-[1,2,4]triazolo[1,5-a]pyrazina-2(4,2)-pyridinacyclotridecaphan-5-one] | 106.1 | 1.05 |
| CCN1C(=O)N[C@@H](CCC(C)(F)F)COCCCOc2nc(cn3ncnc23)-c2cc(ncc2C)[C@H]1C [Example 153, (3R,7S,E)-7-(3,3-difluorobutyl)-4-ethyl-25,3-dimethyl-9,13-dioxa-4,6-diaza-1(6,8)-[1,2,4]triazolo[1,5-a]pyrazina-2(4,2)-pyridinacyclotridecaphan-5-one] | 107.8 | 2.2 |
| CCN1C(=O)NC(CCC(C)(F)F)CCCCCOc2nc(nn3ccnc23)-c2cc(ncc2OC)[C@H]1C (stereo partly drawn) [Example 200, (3R,E)-7-(3,3-difluorobutyl)-4-ethyl-25-methoxy-3-methyl-13-oxa-4,6-diaza-1(2,4)-imidazo[2,1-f][1,2,4]triazina-2(4,2)-pyridinacyclo-tridecaphan-5-one] | 99.5 | 0.53 |
| CCN1C(=O)NC(CCC(F)F)CCCCCOc2nc(cn3ncnc23)-c2cc(ncc2C)[C@H]1C (stereo partly drawn) [Example 201, (3R,E)-7-(3,3-difluoropropyl)-4-ethyl-25,3-dimethyl-13-oxa-4,6-diaza-1(6,8)-[1,2,4]triazolo[1,5-a]pyrazina-2(4,2)-pyridina-cyclotridecaphan-5-one] | 101 | 3.68 |
| CCN1C(=O)N[C@@H](CCC(F)(F)F)CCCCOc2nc(cn3ccnc23)-c2cc(cnc2OC)[C@H]1C [Example 27, (3R,7R,E)-4-ethyl-22-methoxy-3-methyl-7-(3,3,3-trifluoropropyl)-12-oxa-4,6-diaza-1(6,8)-imidazo[1,2-a]pyrazina-2(3,5)-pyridinacyclododecaphan-5-one] | 101.1 | 1.4 |
| CCN1C(=O)NC(C2CC2(F)F)CCCCCOc2nc(cn3ccnc23)-c2cc(ncc2OC)[C@H]1C (stereo partly drawn) [Example 192, (3R,E)-7-(2,2-difluorocyclopropyl)-4-ethyl-25-methoxy-3-methyl-13-oxa-4,6-diaza-1(6,8)-imidazo[1,2-a]pyrazina-2(4,2)-pyridinacyclotri-decaphan-5-one] | 100.9 | 0.46 |
| CCN1C(=O)NC(CCC(F)(F)F)COCCCOc2nc(cn3ccnc23)-c2cc(ncc2OC)[C@H]1C (single isomer, unassigned) [Example 21B] | 100.3 | 0.5 |
| CCN1C(=O)NC(C)CCCCCOc2nc(cn3ccnc23)-c2cccc(c2)[C@H]1C (mixture of isomers) [Example 18, (12R)-13-ethyl-12,16-dimethyl-12,13,16,17,18,19, 20,21-octahydro-6,23-(azeno)-11,7-(metheno) imidazo[2,1-c][1,4,13,15]oxatriaza-cyclohenicosin-14(15H)-one] | 98.6 | 26.6 |
| CCN1C(=O)NC(CC#N)CCCCCOc2nc(cn3ccnc23)-c2cc(ncc2OC)[C@H]1C (stereo partly drawn) [Example 194, 2-((3R,E)-4-ethyl-25-methoxy-3-methyl-5-oxo-13-oxa-4,6-diaza-1(6,8)-imidazo[1,2-a]pyrazina-2(4,2)-pyridinacyclotridecaphane-7-yl)acetonitrile] | 102.2 | 1.2 |
| CCN1C(=O)NCCOCCOc2nc(cn3ccnc23)-c2cccc(c2)[C@H]1C [Example 2, (12R)-13-ethyl-12-methyl-12,13,16,17,19,20-hexahydro-6,22-(azeno)-11,7-(metheno)imidazo[1,2-o][1,18,4,6,15]dioxatriaza-cycloicosin-14(15H)-one] | 64.8 | 813 |
| CCN1C(=O)N[C@@H](CCC(F)(F)F)CCCCCCc2cc(cn3ccnc23)-c2nc(ccc2OC)[C@H]1C [Example 106, (12R,16R)-13-ethyl-8-methoxy-12-methyl-16-(3,3,3-trifluoropropyl)-12,13,15,16,17,18,19, 20,21,22-decahydro-14H-11,7-(azeno)-6,23-(metheno) imidazo[1,2-1][1,3,12] triazacyclohenicosin-14-one] | 99.7 | 1.7 |
| CCN1C(=O)NC(CCC#N)CCCCCOc2nc(cn3ccnc23)-c2cc(ncc2OC)[C@H]1C (stereo partly drawn) [Example 196, 3-((3R,E)-4-ethyl-25-methoxy-3-methyl-5-oxo-13-oxa-4,6-diaza-1(6,8)-imidazo[1,2-a]pyrazina-2(4,2)-pyridinacyclotridecaphane-7-yl)propanenitrile] | 101.6 | 0.44 |
| CCN1C(=O)N[C@@H](CCC(F)(F)F)CCCCCOc2nc(cn3ccnc23)-c2cc(cnc2OC)[C@H]1C [Example 28, (3R,7R,E)-4-ethyl-22-methoxy-3-methyl-7-(3,3,3-trifluoropropyl)-13-oxa-4,6-diaza-1(6,8)-imidazo[1,2-a]pyrazina-2(3,5)-pyridinacyclotridecaphan-5-one] | 102.2 | 0.9 |
| CCN1C(=O)N[C@@H](CCC(F)(F)F)CCCCCOc2cc(cn3ccnc23)-c2cc(cnc2OC)[C@H]1C [Example 91, (12R,16R)-13-ethyl-8-methoxy-12-methyl-16-(3,3,3-trifluoropropyl)-12,13,16,17,18,19,20, 21-octahydro-6,23:11,7-di(metheno) imidazo[2,1-c][1,4,9, 13,15]oxatetraazacyclo-henicosin-14(15H)-one] | 100.5 | 0.6 |
| CCN1C(=O)NCCOCCCOc2nc(cn3ccnc23)-c2cc(ncc2OC)[C@H]1C [Example 8, (12R)-13-ethyl-8-methoxy-12-methyl-12,13,16,17,20,21-hexahydro-19H-6,23-(azeno)-11,7-(metheno)imidazo[1,2-o][1,18,4,6,9,15]dioxatetra-azacyclohenicosin-14(15H)-one] | 100.2 | 13.6 |
| CCN1C(=O)NC(CCC(F)(F)F)CCOCCOc2cn3ncnc3c(n2)-c2ccnc(c2)C1C [Example 136, (3R,7S,E)-4-ethyl-3-methyl-7-(3,3,3-trifluoropropyl)-10,13-dioxa-4,6-diaza-1(6,8)-[1,2,4]triazolo[1,5-a]pyrazina-2(4,2)-pyridinacyclotridecaphan-5-one] | 101.7 | 0.724 |
| CCN1Cc2cccc(c2)-c2cn3ccnc3c(n2)OCCCC[C@H](CCC(F)(F)F)NC1=O [Example 43, (16R)-13-ethyl-16-(3,3,3-trifluoropropyl)-12,13,15,16,17,18,19,20-octahydro-14H-6,22-(azeno)-11,7-(metheno)imidazo[2,1-c][1,4,13,15]oxatriaza-cycloicosin-14-one] | 97.6 | 49.9 |

Other lines, results leading:

| hOX2R_Ipone max %act [%] | EC50 [nM] | SMILES |
| --- | --- | --- |
| 101.6 | 1.2 | CCN1C(=O)NC(C2CC2)CCCCCOc2nc(cn3ccnc23)-c2cc(ncc2OC)[C@H]1C (single isomer, unassigned) [Example 57B] |
| 99.6 | 0.8 | CCN1C(=O)NC(CCOC(F)(F)F)CCCCCOc2nc(cn3ccnc23)-c2cc(ncc2OC)[C@H]1C (single isomer, unassigned) [Example 73B] |
| 99.7 | 4.5 | CCN1C(=O)N[C@@H](CCC(F)(F)F)CCCCOc2nc(cn3ccnc23)-c2ccnc(c2)[C@H]1C [Example 29B, (12R,16R)-13-ethyl-12-methyl-16-(3,3,3-trifluoropropyl)-12,13,15,16,17, 18,19,20-octahydro-14H-6,22-(azeno)-11,7-(metheno) imidazo[2,1-c][1,4,10,13,15] oxatetraazacyclo-icosin-14-one] |
| 100.1 | 2.4 | CCN1C(=O)N[C@@H](CCC(F)(F)F)CCCCCOc2nc(cn3ccnc23)-c2cc(C)nc(c2)[C@H]1C [Example 107B, (12R,16R)-13-ethyl-9,12-dimethyl-16-(3,3,3-trifluoropropyl)-12,13,16,17,18,19,20, 21-octahydro-6,23-(azeno)-11,7-(metheno)imidazo[2,1-c][1,4,10,13,15] oxatetraazacycloheni-cosin-14(15H)-one] |
| 100.6 | 1.8 | CCN1C(=O)N[C@@H](CCC(F)(F)F)CCCCCOc2nc(cn3ccnc23)-c2nc(ncc2C)[C@H]1C [Example 93B, (12R,16R)-13-ethyl-8,12-dimethyl-16-(3,3,3-trifluoro-propyl)-12,13,16,17, 18,19,20,21-octa-hydro-6,23:11,7-di(azeno)imidazo[2,1-c][1,4,10,13,15]oxatet-raazacyclohenicosin-14(15H)-one] |
| 102.7 | 3.5 | CCC(CC)CC1CCCCCOc2nc(cn3ccnc23)-c2cc(ncc2OC)[C@@H](C)N(CC)C(=O)N1 (single isomer, unassigned) [Example 64A] |
| 101.4 | 6 | CCN1C(=O)N[C@@H](CCC(F)(F)F)CCCCCOc2nc(cn3cc(C)nc23)-c2cc(nc3ccoc23)C1C (single isomer, unassigned) [Example 75B] |
| 101.5 | 55.7 | CCN1C(=O)NC(CC(C)C)CCCCCOc2nc(cn3ccnc23)-c2cc(ncc2OC)[C@H]1C (single isomer, unassigned) [Example 53A] |
